In patent US5292733A, “Cephalosporin compounds” (Lucky Limited, priority 1991, dated 1994):
≈ marks a conversion by molar mass, not a printed value.

Legend:
Assay in all cases: Antibacterial activity MIC, two-fold agar dilution
Type in all cases: cell-based
[1] = system: Providencia rettgeri ATCC 9250; conditions: ATCC9250, Muller-Hinton agar, 37° C., 20 hours
Description: (§1) These MIC values were taken by employing a two-fold dilution method: that is, two-fold serial dilutions of each of the test compounds were made and dispersed in a Muller-Hinton agar medium; 2 μl of the standard test strain which had the 10^7 CFU(Colony Forming Unit) per ml was inoculated on the medium; and these were incubated at 37° C. for 20 hours. The results of the MIC tests are shown Table 1.

[2] = system: Salmonella typhimurium ATCC 14028; conditions: Salmonella enterica; Salmonella typhimurium ATCC 14028; Muller-Hinton agar, 37° C., 20 hours; read-out: Antibacterial Activity MIC
Description: as §1

[3] = system: Staphylococcus epidermidis ATCC 12228; conditions: ATCC12228; Staphylococcus epidermidis ATCC 12228; Muller-Hinton agar, 37° C., 20 hours; read-out: Antibacterial Activity MIC
Description: as §1

[4] = system: Proteus vulgaris ATCC 6059; conditions: ATCC6059; Proteus vulgaris ATCC 6059; Muller-Hinton agar, 37° C., 20 hours; read-out: Antibacterial Activity MIC
Description: as §1

[5] = system: Morganella morganii ATCC 8076h; conditions: ATCC8076H, Muller-Hinton agar, 37° C., 20 hours
Description: as §1

[6] = system: Staphylococcus aureus ATCC 10537; conditions: ATCC10537; Staphylococcus aureus ATCC 10537; Muller-Hinton agar, 37° C., 20 hours; read-out: Antibacterial Activity MIC
Description: as §1

[7] = system: Pseudomonas aeruginosa ATCC 10145; conditions: ATCC10145; Pseudomonas aeruginosa ATCC 10145; Muller-Hinton agar, 37° C., 20 hours; read-out: Antibacterial Activity MIC
Description: as §1

[8] = system: Pseudomonas aeruginosa ATCC 27853; conditions: ATCC27853; Pseudomonas aeruginosa ATCC 27853; Muller-Hinton agar, 37° C., 20 hours; read-out: Antibacterial Activity MIC
Description: as §1

[9] = system: Citrobacter freundii ATCC 8090; conditions: ATCC8090; Citrobacter freundii ATCC 8090; Muller-Hinton agar, 37° C., 20 hours; read-out: Antibacterial Activity MIC
Description: as §1

[10] = system: Acinetobacter calcoaceticus ATCC 15473; conditions: ATCC15473; Acinetobacter calcoaceticus ATCC 15473; Muller-Hinton agar, 37° C., 20 hours; read-out: Antibacterial Activity MIC
Description: as §1

[11] = system: Proteus mirabilis ATCC 25933; conditions: ATCC25933; Proteus mirabilis ATCC 25933; Muller-Hinton agar, 37° C., 20 hours; read-out: Antibacterial Activity MIC
Description: as §1

[12] = system: Shigella flexneri ATCC 11836; conditions: ATCC11836, Muller-Hinton agar, 37° C., 20 hours
Description: as §1

[13] = system: Enterobacter aerogenes ATCC 29751; conditions: Klebsiella aerogenes, ATCC29751; Enterobacter aerogenes ATCC 29751; Muller-Hinton agar, 37° C., 20 hours; read-out: Antibacterial Activity MIC
Description: as §1

[14] = system: Enterobacter cloacae ATCC 27508; conditions: ATCC27508; Enterobacter cloacae ATCC 27508; Muller-Hinton agar, 37° C., 20 hours; read-out: Antibacterial Activity MIC
Description: as §1

[15] = system: Serratia marcescens ATCC 27117; conditions: ATCC27117; Serratia marcescens ATCC 27117; Muller-Hinton agar, 37° C., 20 hours; read-out: Antibacterial Activity MIC
Description: as §1

[16] = system: Bacillus cereus ATCC 11778; conditions: ATCC11778; Bacillus cereus ATCC 11778; Muller-Hinton agar, 37° C., 20 hours; read-out: Antibacterial Activity MIC
Description: as §1

[17] = system: Staphylococcus aureus ATCC 6538p; conditions: ATCC6538P; Staphylococcus aureus ATCC 6538p; Muller-Hinton agar, 37° C., 20 hours; read-out: Antibacterial Activity MIC
Description: as §1

[18] = system: Streptococcus faecalis ATCC 29212; conditions: Enterococcus faecalis, ATCC29212; Streptococcus faecalis ATCC 29212; Muller-Hinton agar, 37° C., 20 hours; read-out: Antibacterial Activity MIC
Description: as §1

[19] = system: Micrococcus luteus ATCC 9341; conditions: ATCC9341; Micrococcus luteus ATCC 9341; Muller-Hinton agar, 37° C., 20 hours; read-out: Antibacterial Activity MIC
Description: as §1

[20] = system: Klebsiella pneumoniae ATCC 10031; conditions: ATCC10031; Klebsiella pneumoniae ATCC 10031; Muller-Hinton agar, 37° C., 20 hours; read-out: Antibacterial Activity MIC
Description: as §1

[21] = system: Bacillus megaterium ATCC 9885; conditions: Priestia megaterium, ATCC9885; Bacillus megaterium ATCC 9885; Muller-Hinton agar, 37° C., 20 hours; read-out: Antibacterial Activity MIC
Description: as §1

[22] = system: Pseudomonas aeruginosa ATCC 25619; conditions: ATCC25619; Pseudomonas aeruginosa ATCC 25619; Muller-Hinton agar, 37° C., 20 hours; read-out: Antibacterial Activity MIC
Description: as §1

[23] = system: Shigella sonnei ATCC 11060; conditions: ATCC11060, Muller-Hinton agar, 37° C., 20 hours
Description: as §1

[24] = system: Escherichia coli ATCC 10536; conditions: ATCC10536, Muller-Hinton agar, 37° C., 20 hours
Description: as §1

[25] = system: Escherichia coli ATCC 25922; conditions: ATCC25922, Muller-Hinton agar, 37° C., 20 hours
Description: as §1

| Structure (SMILES) | MIC [1] [µg/mL] | MIC [2] [µg/mL] | MIC [3] [µg/mL] | MIC [4] [µg/mL] | MIC [5] [µg/mL] | MIC [6] [µg/mL] | MIC [7] [µg/mL] | MIC [8] [µg/mL] | MIC [9] [µg/mL] | MIC [10] [µg/mL] | MIC [11] [µg/mL] | MIC [12] [µg/mL] | MIC [13] [µg/mL] | MIC [14] [µg/mL] | MIC [15] [µg/mL] | MIC [16] [µg/mL] | MIC [17] [µg/mL] | MIC [18] [µg/mL] | MIC [19] [µg/mL] | MIC [20] [µg/mL] | further results |
| --- | --- | --- | --- | --- | --- | --- | --- | --- | --- | --- | --- | --- | --- | --- | --- | --- | --- | --- | --- | --- | --- |
| CC[n+]1c(N)cc(SCC2=C(C(=O)[O-])N3C(=O)[C@@H](NC(=O)/C(=N\OC)c4csc(N)n4)[C@H]3SC2)nc1N [Compound I-22, (6R,7)-7-[(Z)-2-(2-aminothiazol-4-yl)-2-(methoxyimino)acetamido]-3-(2,6-diamino-1-ethylpyrimidinium-4-yl)thiomethyl-3-cephem-4-carboxylate] | ≤ 0.008 | 0.13 (≈ 0.23 µM) | 0.25 (≈ 0.442 µM) | 0.25 (≈ 0.442 µM) | ≤ 0.008 | 0.5 (≈ 0.884 µM) | 8 (≈ 14.1 µM) | 2 (≈ 3.54 µM) | 0.25 (≈ 0.442 µM) | 8 (≈ 14.1 µM) | 0.25 (≈ 0.442 µM) | 0.063 (≈ 0.111 µM) | 0.25 (≈ 0.442 µM) | ≤ 0.008 | 0.25 (≈ 0.442 µM) | 64 (≈ 113 µM) | 0.25 (≈ 0.442 µM) | 8 (≈ 14.1 µM) | 0.031 (≈ 0.0548 µM) | ≤ 0.008 | MIC [21]: 0.25 µg/mL (≈ 0.442 µM); MIC [22]: 1 µg/mL (≈ 1.77 µM); MIC [23]: 0.031 µg/mL (≈ 0.0548 µM); MIC [24]: 0.063 µg/mL (≈ 0.111 µM); MIC [25]: 0.063 µg/mL (≈ 0.111 µM) |
| C[n+]1c(N)nc(N)nc1SCC1=C(C(=O)[O-])N2C(=O)C(NC(=O)/C(=N\OC(C)(C)C(=O)O)c3csc(N)n3)[C@H]2SC1 (stereo partly drawn) [Compound I-23, 7-[(Z)-2-(2-aminothiazol-4-yl)-2-(2-carboxyprop-2-oxyimino)acetamido]-3-(4,6-diamino-1-methyl-1,3,5-triazinium-2-yl)thiomethyl-3-cephem-4-carboxylate] | ≤ 0.008 | 0.13 (≈ 0.208 µM) | 2 (≈ 3.2 µM) | 0.063 (≈ 0.101 µM) | ≤ 0.008 | 2 (≈ 3.2 µM) | 2 (≈ 3.2 µM) | 1 (≈ 1.6 µM) | 0.13 (≈ 0.208 µM) | 4 (≈ 6.4 µM) | 0.063 (≈ 0.101 µM) | 0.063 (≈ 0.101 µM) | 2 (≈ 3.2 µM) | 0.031 (≈ 0.0496 µM) | 0.13 (≈ 0.208 µM) | 128 (≈ 205 µM) | 8 (≈ 12.8 µM) | > 128 | 1 (≈ 1.6 µM) | 0.063 (≈ 0.101 µM) | MIC [21]: 0.5 µg/mL (≈ 0.8 µM); MIC [22]: 1 µg/mL (≈ 1.6 µM); MIC [23]: 0.063 µg/mL (≈ 0.101 µM); MIC [24]: 0.063 µg/mL (≈ 0.101 µM); MIC [25]: 0.063 µg/mL (≈ 0.101 µM) |
| CC[n+]1c(N)cc(SCC2=C(C(=O)[O-])N3C(=O)[C@@H](NC(=O)/C(=N\OCC(=O)O)c4csc(N)n4)[C@H]3SC2)nc1N [Compound I-18, (6R,7R)-7-[(Z)-2-(2-aminothiazol-4-yl)-2-(carboxymethoxyimino)acetamido]-3-(2,6-diamino-1-ethyl-pryrimidinium-4-yl)thiomethyl-3-cephem-4-carboxylate] | ≤ 0.008 | 0.25 (≈ 0.41 µM) | 2 (≈ 3.28 µM) | 0.063 (≈ 0.103 µM) | ≤ 0.008 | 4 (≈ 6.56 µM) | 4 (≈ 6.56 µM) | 2 (≈ 3.28 µM) | 0.063 (≈ 0.103 µM) | 16 (≈ 26.2 µM) | 0.063 (≈ 0.103 µM) | 0.016 (≈ 0.0262 µM) | 2 (≈ 3.28 µM) | 0.016 (≈ 0.0262 µM) | 0.063 (≈ 0.103 µM) | > 128 | 4 (≈ 6.56 µM) | > 128 | 0.5 (≈ 0.82 µM) | 0.031 (≈ 0.0508 µM) | MIC [21]: 0.5 µg/mL (≈ 0.82 µM); MIC [22]: 1 µg/mL (≈ 1.64 µM); MIC [23]: 0.063 µg/mL (≈ 0.103 µM); MIC [24]: 0.063 µg/mL (≈ 0.103 µM); MIC [25]: 0.063 µg/mL (≈ 0.103 µM) |
